Here are results for 3 compounds from patent US20140275102A1, “Solid State Forms of 6-[4-[3-((R)-2-Methylpyrrolidine-1-yl)-propoxy]phenyl] 2H-pyridazine-3-one Hydrochloride” (Cephalon Inc., priority 2013, published 2014).

Type in all cases: physicochemical
Series [1] is described as follows: Solid state stress stability at 40° C./75% RH (XRPD, stability-indicating HPLC). The conditions noted are these: for Area Purity (%): 40° C./75% RH, HPLC. On the procedure: Powder X-Ray Diffraction patterns were recorded on a PANalytical X Pert Pro diffractometer equipped with an X celerator detector using Cu Kα radiation at 40 kV and 40 mA. Kα1 radiation is obtained with a highly oriented crystal (Ge111) incident beam monochromator. A 10 mm beam mask, and fixed (¼°) divergence and anti-scatter (⅛°) slits were inserted on the incident beam side. A fixed 0.10 mm receiving slit was inserted on the diffracted beam side. […] The sample was spread on silicon zero background (ZBG) plate for the measurement. The sample was rotated at 4°/min on a PANalytical PW3064 Spinner.
Typically 10 μL aliquots of the sample solutions were diluted to 1 mL with acetonitrile and the assay concentrations were determined from an average of duplicate injections using the following HPLC method. The purity and impurity analyses are done using conventional HPLC.
Stress stability studies were performed to assess the influence of temperature and humidity on stability of Forms A1 and H4A1. A stability-indicating HPLC assay method was developed for quantification of Compound 1. The developed method, described above in section VII, is specific, accurate, precise and robust.

A short description of series [2]: Gravimetric Vapor Sorption (GVS). The conditions noted are these: for Moisture uptake / XRPD analysis of the after GVS sample: GVS 70-0-90% RH. On the procedure: Gravimetric Vapor Sorption experiments have been carried out using the DVS-HT instrument (Surface Measurement Systems, London, UK). This instrument measures the uptake and loss of vapor gravimetrically using a recording ultra-microbalance with a mass resolution of ±0.1 μg. […] The desired temperature is maintained at ±0.1° C. […] (3 cycles). The DVS experiment was started at 70% RH (red line) to ensure that there was no moisture loss. The sample was kept at 70% RH for 2 hours. […] After each cycle the moisture uptake decreases to 21, 15, and 2.3% respectively at 90% RH. Significant polymorphic changes were observed by XRPD analysis of the “after GVS” samples.

A short description of series [3]: Solid-solid transition on storage at controlled humidity, 25° C. (XRPD). On the procedure:
Approximately 100 mg of Form A1 was exposed to 100% RH at 25° C. over 1 day. Analysis by XRPD confirmed quantitative conversion of the material to Form […].

Series [4] can be described thus: Variable temperature XRPD (VT-XRPD). On the procedure:
Variable temperature studies were performed with an Anton Paar TTK450 temperature chamber under computer control through an Anton Paar TCU100 temperature control unit. Typically the measurements were done with a nitrogen flow through the camera. Two measurement schemes were used, restricted and continuous. In the restricted mode, measurements were made, only after the TK450 chamber reached the requested temperature. In the continuous mode, the sample was heated at 10° C./minute and fast scans were measured as the temperature changed. After the requested temperature was reached, the sample was cooled at 35° C./minute and a slow scan measured 25° C. The temperatures chosen were based on DSC results. For the diffractometer set-up a 10 mm beam mask, 0.04 radian Soller slits and fixed (1⁄4°) divergence and anti-scatter (1⁄8°) slits were inserted on the incident beam side. A fixed 0.10 mm receiving slit, 0.04 radian Soller slits and a 0.02 mm Nickel filter were inserted on the diffracted beam side. […] A variable temperature study was performed for Form A1 according to the protocol set out in II above.

Series [5] is described as follows: Stability to mechanical stress (grinding, XRPD). The conditions noted are these: after thirty minutes of grinding. On the procedure:
A Wig-1-Bug (Piketech, USA) was used to grind Forms A1 and H-4A1. Each sample (50 mg) was ground for periods of 5, 10, 15 and 30 minutes. Each grinding was carried out in a 2.82 cm^3 container using 0.9 g stainless steel ball ([…]). The vial was swung through a 6.5° arc at 3200 rpm, causing the ball to strike the end of the vial at over 100 Hz.

Take `C[C@@H]1CCCN1CCCOc1ccc(-c2ccc(=O)[nH]n2)cc1.Cl` [Form H4A1, 6-[4-[3-((R)-2-methylpyrrolidine-1-yl)-propoxy]phenyl]2H-pyridazine-3-one hydrochloride]: the “Area Purity (%)” value in series [1] (0 days, hydrochloride) stood at 99.6%; in series [1] (7 days, hydrochloride), 99.5%; in series [1] (14 days, hydrochloride), 99.5%; in series [1] (28 days), 99.5%. For the same compound, in series [1] (28 days at 40° C. and 75% RH), the “Physical and chemical stability on storage” value is “physically and chemically stable”. The Moisture uptake is reported as 21% in series [2] (at 90% RH, first cycle); 15% in series [2] (at 90% RH, second cycle); 2.3% in series [2] (at 90% RH, third cycle). The “XRPD analysis of the after GVS sample” value was “mixture of Forms A1 and H4A1” in series [2] (first cycle); “mixture of Forms A1 and H4A1” in series [2] (second cycle); “Complete conversion of Form H4A1 to Form A1” in series [2] (third cycle). For the same compound, the XRPD after storage entry in series [3] (25° C./0% RH for 7 days) is listed as “quantitative conversion of the material to Form A1”.

Take `C[C@@H]1CCCN1CCCOc1ccc(-c2ccc(=O)[nH]n2)cc1.Cl` [Form B1, 6-[4-[3-((R)-2-methylpyrrolidine-1-yl)-propoxy]phenyl]2H-pyridazine-3-one hydrochloride]: the “Temperature at which polymorphic transformation to Form A1 was observed (VT-XRPD)” value in series [4] (Form B1 made by dehydrating Form H4A1 at 25-100° C., 0% RH) was 220 °C.

`C[C@@H]1CCCN1CCCOc1ccc(-c2ccc(=O)[nH]n2)cc1.Cl` [Form A1, 6-[4-[3-((R)-2-methylpyrrolidine-1-yl)-propoxy]phenyl]2H-pyridazine-3-one hydrochloride]: the “Changes on storage as assessed by XRPD” value in series [1] (4 weeks of storage at 40 degrees C. at 75% relative humidity) is reported as “No significant changes”. Moreover, in series [1] (40° C./75% RH after 4 weeks), the Chemical degradation result is given as “chemical degradation was not observed”. Also, in series [1] (40° C./75% RH after 4 weeks), the “Water uptake from the environment in the solid state” value is recorded as “not observed to take up water”. The “Area Purity (%)” value came out at 99.5% in series [1] (0 days, hydrochloride); 99.6% in series [1] (7 days, hydrochloride); 99.7% in series [1] (14 days, hydrochloride); 99.5% in series [1] (28 days). Besides, in series [2] (GVS, 0-90% RH cycles), the “Hydrate formation under GVS conditions” value was “did not appear to form a hydrate”. For the same compound, the “Hygroscopicity (adsorption and desorption curves)” value in series [2] (GVS, 0-90% RH cycles) is reported as “not hygroscopic”. The “Amount of moisture adsorbed” value in series [2] (GVS, at 90% RH) is recorded as “approximately 1.8%”; in series [2] (GVS, relative humidity not printed (below 90% RH)), “less than 0.8%”. For the same compound, the “XRPD before and after GVS” value in series [2] (after GVS, 0-90% RH cycles) is “no significant changes after GVS”. Further, the “Change in crystal form on grinding (XRPD)” value in series [5] is given as “did not generate a change in crystal form”. The “Crystallinity by XRPD after grinding” value in series [5] is recorded as “crystallinity had been significantly reduced”. The “Solid-solid transformation on heating (VT-XRPD)” value in series [4] (temperature range of 20° C. to 250° C.) is “No solid-solid transformation was observed”. In addition, the “XRPD after exposure to humidity” value in series [3] (100% RH at 25° C. over 1 day) is “quantitative conversion of the material to Form H4A1”.
